From ChEMBL document CHEMBL1201862, “PubChem BioAssay data set” (2004) come the findings set out here.

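Cells were grown in 96-well plates and exposed to each compound for 48 hours at five concentrations; endpoints were interpolated linearly between bracketing concentrations, or set to the highest concentration if not reached. The concentration for 50% growth inhibition is given as GI50.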 Activity calls are given as the source filed them. Cut-off read from the data, not from the text of the source: active = GI50 up to about 1.1 µM and inactive = higher.

What all share (experiment): growth of human tumour cells (NCI), 48 h
Test [1] concerns A498.
Test [2] deals with CAKI-1.
The subject of test [3] is CCRF-CEM.
In test [4] the test system is HCT-116.
Test [5] concerns HCT-15.
For test [6], the system named is HOP-62.
For test [7], the system named is HT-29.
In test [8] the test system is Hs-578T.
The subject of test [9] is IGROV-1.
Test [10] has as its system KM12.
Test [11] relates to M14.
The test system of test [12] is MDA-N.
The subject of test [13] is Malme-3M.
Test [14] deals with NCI/ADR-RES.
Test [15] has as its system PC-3.
Test [16] has as its system SNB-19.
For test [17], the system named is TK-10.
Test [18] concerns UO-31.
Test [19] deals with SR.
Test [20] deals with UACC-62.

With `CC(C)/C(Cl)=N\OC(=O)NNc1ccccc1`, the GI50 is 75.2 µM (inactive) in test [1]; 14.8 µM (inactive) in [2]; < 0.0333 µM (active) in test [3]; 1.03 µM (active) in [4]; 21.1 µM in test [5]; > 43.1 µM (inactive) in [6]. The GI50 was 0.397 µM (active) in test [7]; 54.6 µM (inactive) in test [8]; 1.8 µM (inactive) in test [9]; 1.55 µM (inactive) in test [10]; 3.47 µM (inactive) in test [11]; 20 µM (inactive) in [12]. The GI50 in [13] was 15.8 µM (inactive); in [14] it was 28.1 µM (inactive); in [15] it was 0.174 µM (active); in test [16], 73.3 µM (inactive); in test [17], 68.7 µM (inactive); in test [18] it was 0.0178 µM (active).
Regarding `CCCN1C(=O)CN(S(=O)(=O)c2ccc(Cl)cc2)C1=O`, the GI50 in test [1] was > 100 µM (inactive); in [2], > 100 µM (inactive); in [3], > 100 µM (inactive); in [4] it was > 100 µM (inactive); in test [5], greater than 100 µM; in test [6], > 100 µM (inactive). For the same molecule, the GI50 in [7], in test [8], in test [9], in test [10], in [11] and in test [12] was > 100 µM (inactive) throughout. For the same molecule, the GI50 in [13] is > 100 µM (inactive); in test [15] it was > 100 µM (inactive); in test [16], > 100 µM (inactive); in test [19] it was 71 µM (inactive); in test [17] it was > 100 µM (inactive); in test [20], > 100 µM (inactive). Besides, in test [18], the GI50 was > 100 µM (inactive).
On to `CCOC(=O)CCCn1cc(C(=O)OC)nn1`, for which the GI50 in test [2] is > 100 µM (inactive); in test [3] it was > 100 µM (inactive); in test [4] it was > 100 µM (inactive); in test [5], greater than 100 µM; in test [6], > 100 µM (inactive); in test [7], > 100 µM (inactive). Moreover, the GI50 in test [8], in [9], in test [10], in [12], in [13] and in test [14] was > 100 µM (inactive) throughout. Moreover, the GI50 in [15], in test [16], in [17], in test [20] and in test [18] was > 100 µM (inactive) each time.
For the molecule `COc1cc2cc(C(=O)N3CC(COS(C)(=O)=O)c4ccc(O)cc43)[nH]c2c(OC)c1OC` (stereo unspecified), the GI50 in test [1] was < 0.01 µM (active); in test [3], < 0.01 µM (active); in test [4], < 0.0001 µM (active); in test [5] it was less than 0.0001 µM; in test [6] it was < 0.0001 µM (active); in test [7], < 0.0001 µM (active). The GI50 is 0.000168 µM (active) in test [8]; 0.000158 µM (active) in test [9]; 0.000169 µM (active) in test [10]; < 0.0001 µM (active) in test [11]; < 0.01 µM (active) in test [12]; < 0.0001 µM (active) in test [13]. For the same molecule, the GI50 was < 0.0001 µM (active) in test [14]; < 0.0001 µM (active) in test [16]; < 0.0001 µM (active) in [19]; 0.000301 µM (active) in [17]; < 0.0001 µM (active) in test [20]; < 0.0001 µM (active) in test [18].
Consider `OCCOCn1cc(Cn2ncc3c(SCc4ccccc4)ncnc32)nn1`, for which the GI50 in [1] was 34.4 µM (inactive); in [2], 48.4 µM (inactive); in test [4], 34.7 µM (inactive); in test [5] it was 37.4 µM; in test [6], 48.1 µM (inactive); in test [7], 38.2 µM (inactive). The GI50 in [8] is 39.8 µM (inactive); in test [9], 53.2 µM (inactive); in test [10] it was 32.3 µM (inactive); in test [11], 27.3 µM (inactive); in test [12] it was 14.4 µM (inactive); in [13] it was 76.2 µM (inactive). For the same molecule, the GI50 in [14] is 31.8 µM (inactive); in test [15], 69 µM (inactive); in test [16], 85.7 µM (inactive); in test [17], > 100 µM (inactive); in [20], 37.1 µM (inactive); in test [18] it was 61.8 µM (inactive).
In the case of `CCc1ccc(Nc2cc(=O)[nH]c(SCc3ccccc3)n2)cc1`, the GI50 was > 100 µM (inactive) in test [1]; > 100 µM (inactive) in test [2]; > 100 µM (inactive) in test [3]; 80.7 µM (inactive) in test [4]; greater than 100 µM in [5]; 32.5 µM (inactive) in [6]. Moreover, the GI50 in [7], in [8], in test [9], in test [10], in test [11] and in test [12] was > 100 µM (inactive) each time. For the same molecule, the GI50 in test [13] is > 100 µM (inactive); in test [14] it was 74.1 µM (inactive); in [16], 38.2 µM (inactive); in test [19], > 100 µM (inactive); in test [17] it was > 100 µM (inactive); in test [20], 48.8 µM (inactive). Also, the GI50 in test [18] was > 100 µM (inactive).
`C=CCOC(C)(C)C1=CCC(C)CC1` (stereo unspecified): the GI50 is > 100 µM (inactive) in test [1]; > 100 µM (inactive) in [2]; > 100 µM (inactive) in test [4]; greater than 100 µM in [5]; > 100 µM (inactive) in [6]; > 100 µM (inactive) in [7]. The GI50 in test [8], in [9], in test [10], in test [11], in [12] and in [13] was > 100 µM (inactive) throughout. Besides, the GI50 in test [15] is > 100 µM (inactive); in test [16] it was > 100 µM (inactive); in test [19], > 10 µM (inactive); in [17], > 100 µM (inactive); in test [20], > 100 µM (inactive); in [18] it was > 100 µM (inactive).
As for `C[N+](C)([O-])CCCNc1ccnc2cccc([N+](=O)[O-])c12`, the GI50 in test [1] was 51.3 µM (inactive); in test [2] it was 44.1 µM (inactive); in test [3] it was 31.6 µM (inactive); in test [4], 28.4 µM (inactive); in [5] it was 24.2 µM; in [6], 83 µM (inactive). For the same molecule, the GI50 is 32.9 µM (inactive) in test [7]; 21.1 µM (inactive) in test [8]; 46 µM (inactive) in test [9]; 33 µM (inactive) in [10]; 37.7 µM (inactive) in test [11]; 30.6 µM (inactive) in test [12]. Moreover, the GI50 in [13] was 28.1 µM (inactive); in test [15], 45.8 µM (inactive); in test [16], > 100 µM (inactive); in test [19], 34.2 µM (inactive); in [17], 24.9 µM (inactive); in [20] it was 31.3 µM (inactive). Also, in test [18], the GI50 was 46.5 µM (inactive).
